Reference: patent US7608281B2, “Composition and use of RAR antagonists for promoting chondrogenesis” (T. Michael Underhill, priority 1999, dated 2009)
Entries after “also recorded” stand apart in the source; their conditions may differ.

T1: RARα (Homo sapiens, UniProt P10276)
T1 construct: expressed in transfected cells; host or cells: P19 embryonal carcinoma cells
T1 sequence (P10276 1-462): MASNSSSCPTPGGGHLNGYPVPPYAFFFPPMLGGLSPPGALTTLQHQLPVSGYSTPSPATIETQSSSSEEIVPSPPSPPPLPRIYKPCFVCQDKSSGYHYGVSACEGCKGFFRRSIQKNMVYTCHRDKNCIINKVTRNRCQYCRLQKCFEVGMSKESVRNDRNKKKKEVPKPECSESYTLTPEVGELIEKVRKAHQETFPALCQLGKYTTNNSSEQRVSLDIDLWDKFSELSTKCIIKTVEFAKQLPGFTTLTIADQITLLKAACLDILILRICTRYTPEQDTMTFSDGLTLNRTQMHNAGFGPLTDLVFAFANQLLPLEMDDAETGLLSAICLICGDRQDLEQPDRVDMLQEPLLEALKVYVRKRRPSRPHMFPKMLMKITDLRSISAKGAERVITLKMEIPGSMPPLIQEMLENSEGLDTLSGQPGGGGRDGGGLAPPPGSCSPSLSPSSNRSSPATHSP

T2: RARγ (Homo sapiens, UniProt P13631)
T2 construct: expressed in transfected cells; host or cells: P19 embryonal carcinoma cells
T2 sequence (P13631 1-454): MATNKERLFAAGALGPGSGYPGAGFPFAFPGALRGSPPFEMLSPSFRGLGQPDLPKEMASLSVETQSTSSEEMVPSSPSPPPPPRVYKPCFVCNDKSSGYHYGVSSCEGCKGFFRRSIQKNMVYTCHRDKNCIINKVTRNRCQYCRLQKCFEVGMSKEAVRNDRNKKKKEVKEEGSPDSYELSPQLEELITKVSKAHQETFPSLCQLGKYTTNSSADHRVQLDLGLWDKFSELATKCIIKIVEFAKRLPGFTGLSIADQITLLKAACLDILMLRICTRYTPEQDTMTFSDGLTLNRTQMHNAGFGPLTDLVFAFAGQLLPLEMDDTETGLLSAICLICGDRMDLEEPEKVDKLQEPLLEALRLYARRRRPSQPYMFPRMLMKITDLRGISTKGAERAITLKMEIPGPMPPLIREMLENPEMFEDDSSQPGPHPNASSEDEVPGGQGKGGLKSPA

T3: RARβ (Homo sapiens, UniProt P10826)
T3 construct: expressed in transfected cells; host or cells: P19 embryonal carcinoma cells
T3 sequence (P10826 1-455): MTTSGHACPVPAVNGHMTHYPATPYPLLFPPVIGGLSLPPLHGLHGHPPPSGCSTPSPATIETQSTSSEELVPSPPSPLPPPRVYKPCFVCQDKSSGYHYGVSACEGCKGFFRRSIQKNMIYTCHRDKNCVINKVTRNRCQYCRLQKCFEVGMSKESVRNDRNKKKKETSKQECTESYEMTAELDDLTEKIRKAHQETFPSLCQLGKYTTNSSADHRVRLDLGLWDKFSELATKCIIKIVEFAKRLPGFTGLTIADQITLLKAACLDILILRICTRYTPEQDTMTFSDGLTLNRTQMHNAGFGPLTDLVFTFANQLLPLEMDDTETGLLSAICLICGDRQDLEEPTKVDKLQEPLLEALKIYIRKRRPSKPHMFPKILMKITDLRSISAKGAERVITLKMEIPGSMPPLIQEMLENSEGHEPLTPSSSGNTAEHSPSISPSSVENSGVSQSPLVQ


Assays:
[1] = test system: wild-type limb mesenchyme micromass cultures; assay: Cartilage nodule formation in wild-type limb bud micromass cultures (alcian blue staining); type: cell-based, murine
Description: Micromass cultures were prepared from murine E11.25 to E11.75 fore and hind limb buds as previously described with the following modifications (Cash et al. (1997) J. Cell Biol. 136, 445-457). After proteolytic digestion cells were filtered through a Cell Sieve ([…], Falcon) to obtain a single cell suspension. Culture media (40% Dulbecco's modified Eagle's medium, 60% F12 was supplemented with fetal bovine serum to 10%, Gibco-BRL) was changed daily. […] Addition/removal experiments included either adding or removing supplemented media on the indicated culture day, 24 hours after culture initiation was considered day 1. To detect transgene-expressing cells, cultures were fixed stained as previously described, with magenta-gal (BioSynth International Inc.) being substituted for X-gal. This was followed by alcian blue staining for cartilage-specific glycosaminoglycans. Alcian blue staining of magenta-gal stained cultures turned the red precipitate to a purple color, this is a result of incubating magenta-gal stained cells at pH 1. This double-staining technique enables transgene-expressing cells to be localized with respect to alcian blue stained cartilage nodules.

[2] = molecular target: T1, RARα; assay: Transient transfection: inhibition of all-trans RA induction of RARE luciferase construct in P19 cells, RARα; type: cell-based; conditions: 1 μM AGN194301, 100 nM all-trans RA
Description: (§1) The ability of AGN194301 to inhibit all-trans RA induction of an RARE containing luciferase construct was performed in P19 embryonal carcinoma cells as previously described with some modification (Underhill et al. (1994) Mol. Endo. 8, 274-285). P19 cells were seeded at a density of 1.5×10^4 cells/well in 6 well plates. […] Following transfection cells were washed and fresh media was added that contained 1×10^−7 M all-trans RA and various amounts of AGN194301. Twenty-four hours later cell extracts were prepared, and luciferase and β-galactosidase activity measured. Luciferase activity was normalized with β-galactosidase activity to control for differences in transfection efficiency.
(§2) RAR activity as used herein refers to the level of RA-induced transcriptional activity of the RARs. Micromass cultures were treated with the RARα-specific antagonist AGN194301 to examine whether inhibition of RARα activity stimulated cartilage formation. Addition of 1 μM AGN194301 to wild-type micromass cultures lead to a dramatic increase in nodule number with no apparent increase in nodule size as compared to untreated control cultures (FIG. 5G, J, M). […] To confirm that the concentrations utilized in these experiments inhibited RARα activity specifically, the level of RARα, RARβ and RARγ mediated RARE activation was measured with 100 nM all-trans RA in the presence of various concentrations of antagonist. […]

[3] = molecular target: T2, RARγ; assay: Transient transfection: inhibition of all-trans RA induction of RARE luciferase construct in P19 cells, RARγ; type: cell-based; conditions: 1 μM AGN194301, 100 nM all-trans RA
Description: as §1, §2

[4] = molecular target: T3, RARβ; assay: Transient transfection: inhibition of all-trans RA induction of RARE luciferase construct in P19 cells, RARβ; type: cell-based; conditions: 1 μM AGN194301, 100 nM all-trans RA
Description: as §1, §2

| RARα signaling (RARE activation) remaining [2] | RARγ signaling (RARE activation) remaining [3] | RARβ signaling (RARE activation) remaining [4] | Molecule | rescue of cartilage nodule formation in Noggin-treated cultures ([1]; 1 μM AGN194301 + 10 ng/ml Noggin, day 6) | increase in number of cartilage nodules (more nodules than untreated cultures) ([1]; 1 μM AGN194301, 8 days in culture, wild-type cultures, FIG. 5M) | reduction of cartilage nodule formation in comparison to untreated controls ([1]; 10 ng/ml Noggin, wild-type cultures) | number of cartilage nodules relative to control cultures ([1]; Noggin alone 10 ng/ml, FIG. 6d) |
| --- | --- | --- | --- | --- | --- | --- | --- |
| ~0.3 % of controls | ~26 % of controls | ~18 % of controls | Cc1ccc(C2=CC(C)(C)Oc3c(Br)cc(C(=O)Nc4ccc(C(=O)O)c(F)c4)cc32)cc1 [AGN194301, 2-Fluoro-4-[(1-(8-bromo-2,2-dimethyl-4-(4-methylphenyl)-2-H-chromen-6-yl)-methanoyl)-amino]-benzoic acid] | resembled untreated cultures; also recorded: comparable to that of control cultures | 60% | – | – |
| – | – | – | Noggin: purified Xenopus noggin protein, secreted inhibitor of BMP-2 and -4 (protein, UniProt P49011 20-222, looked up) Noggin: RIDQGGCQHYLHIRPAPSENLPLVDLIEHPDPIYDPKEKDLNETLLRTLMVGHFDPNFMATILPEERLGVEDLGELDLLLRQKPSGAMPAEIKGLEFYEGLQSKKHRLSKKLRRKLQMWLWSQTFCPVLYTWNDLGTRFWPRYVKVGSCYSKRSCSVPEGMVCKAAKSMHLTILRWRCQRRVQQKCAWITIQYPVISECKCSC | – | – | ~84% | ~10 % of that of control cultures |
